{"source": "patent US20090062277A1", "about": "“PHOSPHODIESTERASE 10 INHIBITORS” (priority 2007, published 2009)", "target": "T1, mPDE10A7 (Mus musculus, UniProt Q8CA95)", "T1 sequence (Q8CA95 446-763 limits assumed)": "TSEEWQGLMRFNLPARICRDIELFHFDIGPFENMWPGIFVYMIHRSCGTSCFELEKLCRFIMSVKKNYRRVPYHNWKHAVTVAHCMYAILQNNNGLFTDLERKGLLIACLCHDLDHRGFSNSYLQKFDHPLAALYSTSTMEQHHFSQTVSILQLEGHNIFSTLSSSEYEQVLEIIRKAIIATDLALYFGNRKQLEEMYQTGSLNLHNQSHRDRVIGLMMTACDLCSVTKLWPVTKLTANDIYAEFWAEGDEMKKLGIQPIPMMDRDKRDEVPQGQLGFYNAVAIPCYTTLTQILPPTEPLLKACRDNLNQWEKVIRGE", "experiment": "mPDE10A7 enzyme inhibition (IMAP fluorescence polarization)", "format": "biochemical", "conditions": "fluorescein labeled cAMP or cGMP substrate, 30 min at room temperature", "protocol": "Enzyme Activity. To analyze the enzyme activity, 5 μL of serial diluted mPDE10A7 containing lysate were incubated with equal volumes of diluted (100-fold) fluorescein labeled cAMP or cGMP for 30 min in MDC HE 96-well assay plates (Molecular Devices Corp., Sunnyvale Calif.) at room temperature. Both the enzyme and the substrates were diluted in the following assay buffer: Tris/HCl (pH 8.0) 50 mM, MgCl2 5 mM, 2-mercaptoethanol 4 mM, and BSA 0.33 mg/mL. After incubation, the reaction was stopped by adding 20 μL of diluted (400-fold) binding reagents and was incubated for an hour at room temperature. The plates were counted in an Analyst GT (Molecular Devices) for fluorescence polarization. An IMAP assay kit (Molecular Devices) was used to assess enzyme properties of mPDE10A7. Data were analyzed with SOFTMAX PRO software (Molecular Devices).\nEnzyme Inhibition. To check the inhibition profile, 10 μL of serial diluted compounds were incubated with 30 μl of diluted PDE enzymes in a 96-well polystyrene assay plate for 30 min at room temperature. After incubation, 5 μL of the compound-enzyme mixture were aliquoted into a MDC HE black plate, mixed with 5 μl of 100-fold diluted fluorescein labeled substrates (cAMP or cGMP), and incubated for 30 min at room temperature. The reaction was stopped by adding 20 μL of diluted binding reagents and counted in an Analyst GT for fluorescence polarization. The data were analyzed with SoftMax Pro.", "data": [{"compound": "COc1cc2nncc(-c3ccc(N4CCC(O)(c5ccccn5)CC4)nc3)c2cc1OC", "note": "[Cpd 2, 1-(5-(6,7-dimethoxycinnolin-4-yl)pyridin-2-yl)-4-(pyridin-2-yl)piperidin-4-ol]", "values": [{"measurement": "IC50", "value": 5.58, "unit": "nM"}]}, {"compound": "COc1cc2nncc(-c3cnc(N4CCC(O)(C5CC5)CC4)c(C)c3)c2cc1OC", "note": "[Cpd 4, 4-cyclopropyl-1-(5-(6,7-dimethoxycinnolin-4-yl)-3-methylpyridin-2-yl)piperidin-4-ol]", "values": [{"measurement": "IC50", "value": 2.8, "unit": "nM"}]}, {"compound": "COc1cc2nncc(-c3cnc(N4CCC(C)(O)CC4)c(C)c3)c2cc1OC", "note": "[Cpd 7, 1-(5-(6,7-dimethoxycinnolin-4-yl)-3-methylpyridin-2-yl)-4-methylpiperidin-4-ol]", "values": [{"measurement": "IC50", "value": 0.6, "unit": "nM"}]}, {"compound": "COc1cc2nncc(-c3cnc(N4CCC(O)(c5ccccn5)CC4)c(Cl)c3)c2cc1OC", "note": "[Cpd 8, 1-(3-chloro-5-(6,7-dimethoxycinnolin-4-yl)pyridin-2-yl)-4-(pyridin-2-yl)piperidin-4-ol]", "values": [{"measurement": "IC50", "value": 3.07, "unit": "nM"}]}, {"compound": "COC[C@H]1CCCN1c1ncc(-c2cnnc3cc(OC)c(OC)cc23)cc1Cl", "note": "[Cpd 9]", "values": [{"measurement": "IC50", "value": 1, "unit": "nM"}]}, {"compound": "COc1cc2cncc(-c3cnc(N4CCC(C(C)(C)O)CC4)c(C)c3)c2cc1OC", "note": "[Cpd 12]", "values": [{"measurement": "IC50", "value": 14.7, "unit": "nM"}]}, {"compound": "COc1cc2nncc(-c3cnc(N4CCC(O)(c5cccnc5)CC4)c(C)c3)c2cc1OC", "note": "[Cpd 13]", "values": [{"measurement": "IC50", "value": 1.02, "unit": "nM"}]}, {"compound": "COc1cc2nncc(-c3ccc(N4CCN(c5ncc(Cl)cc5Cl)CC4)nc3)c2cc1OC", "note": "[Cpd 14]", "values": [{"measurement": "IC50", "value": 417, "unit": "nM"}]}, {"compound": "COc1cc2nncc(-c3ccc(N4CCN(c5cccc(C(F)(F)F)c5)CC4)nc3)c2cc1OC", "note": "[Cpd 15]", "values": [{"measurement": "IC50", "value": 126, "unit": "nM"}]}, {"compound": "COc1cc2nncc(-c3cnc(N4CCN(c5ccc(F)cc5F)CC4)c(C)c3)c2cc1OC", "note": "[Cpd 16]", "values": [{"measurement": "IC50", "value": 11, "unit": "nM"}]}, {"compound": "COc1cc2nncc(-c3ccc(N4CCN(CC5CC5)CC4)nc3)c2cc1OC", "note": "[Cpd 17]", "values": [{"measurement": "IC50", "value": 10.2, "unit": "nM"}]}, {"compound": "COc1cc2nncc(-c3ccc(N4CCN(C(C)=O)CC4)nc3)c2cc1OC", "note": "[Cpd 18]", "values": [{"measurement": "IC50", "value": 6.56, "unit": "nM"}]}, {"compound": "COc1cc2nncc(-c3ccc(N4CCCC4CN(C)C)nc3)c2cc1OC", "note": "(centres unmarked) [Cpd 20]", "values": [{"measurement": "IC50", "value": 60.2, "unit": "nM"}]}, {"compound": "COc1cc2nncc(-c3ccc(N4CCN(C(=O)C5CC5)CC4)nc3)c2cc1OC", "note": "[Cpd 22]", "values": [{"measurement": "IC50", "value": 4.85, "unit": "nM"}]}, {"compound": "COc1cc2nccc(-c3cnc(N4CCC(C(C)(C)O)CC4)c(C)c3)c2cc1OC", "note": "[Cpd 24]", "values": [{"measurement": "IC50", "value": 4.22, "unit": "nM"}]}, {"compound": "COc1cc2nncc(-c3ccc(N4CCCC4c4cccs4)nc3)c2cc1OC", "note": "(centres unmarked) [Cpd 25]", "values": [{"measurement": "IC50", "value": 7.42, "unit": "nM"}]}, {"compound": "COc1cc2nncc(-c3ccc(N4CCC(C(=O)N5CCOCC5)CC4)nc3)c2cc1OC", "note": "[Cpd 27]", "values": [{"measurement": "IC50", "value": 5.63, "unit": "nM"}]}, {"compound": "COc1cc2nncc(-c3cnc(N4CCC(C(N)=O)CC4)c(C)c3)c2cc1OC", "note": "[Cpd 28]", "values": [{"measurement": "IC50", "value": 2.08, "unit": "nM"}]}, {"compound": "CCOC(=O)C1CCN(c2ccc(-c3cnnc4cc(OC)c(OC)cc34)cn2)CC1", "note": "[Cpd 30]", "values": [{"measurement": "IC50", "value": 9.57, "unit": "nM"}]}, {"compound": "COc1cc2c(-c3ccc(N4CCC(O)(c5ccccc5)CC4)nc3)cnnc2cc1C", "note": "[Cpd 35]", "values": [{"measurement": "IC50", "value": 191, "unit": "nM"}]}]}
